Drawing on ChEMBL document CHEMBL1134376, “Structure-activity relationship studies of 4-[2-(diphenylmethoxy)ethyl]-1-benzylpiperidine derivatives and their N-analogues: evaluation of O-and N-analogues and their binding to monoamine transporters” (J Med Chem, 2001), this text covers Ratio and IC50 for 17 compounds.

Structures are written as SMILES.

Assay [1] has as its target Monoamine transporters; serotonin & dopamine (Rattus norvegicus) (UniProt P31652+P23977). Kind of assay: Selectivity for serotonin transporter compared to dopamine transporter. In kind it is protein assay.
For assay [2], the target named is Norepinephrine transporter (Rattus norvegicus, UniProt Q9WTR4). The experiment in a line: Affinity at norepinephrine transporter (NET) in rat striatum, using [3H]- nisoxatine as radioligand. In kind it is tissue-based.
The species entered for another assay is Rattus norvegicus. The experiment in a line: Inhibition of dopamine reuptake ([3H]DA uptake) in […]. The assay is classed as functional.
Assay [3] concerns the target Sodium-dependent dopamine transporter (Rattus norvegicus) (UniProt P23977). Kind of assay: Ratio of ([3H]-DA uptake) / [3H]WIN-35428 binding was determined in […].
Assay [4] has as its target Sodium-dependent serotonin transporter (Rattus norvegicus, UniProt P31652). The experiment in a line: In vitro binding affinity at serotonin transporter in rat striatum by [3H]- citalopram displacement. The assay is classed as tissue-based.
Assay [5] deals with Sodium-dependent dopamine transporter (Rattus norvegicus, UniProt P23977). Kind of assay: In vitro binding affinity at dopamine transporter in rat striatum by [3H]WIN-35428 displacement. The assay is classed as tissue-based.
Chain of Sodium-dependent dopamine transporter (P23977 whole entry): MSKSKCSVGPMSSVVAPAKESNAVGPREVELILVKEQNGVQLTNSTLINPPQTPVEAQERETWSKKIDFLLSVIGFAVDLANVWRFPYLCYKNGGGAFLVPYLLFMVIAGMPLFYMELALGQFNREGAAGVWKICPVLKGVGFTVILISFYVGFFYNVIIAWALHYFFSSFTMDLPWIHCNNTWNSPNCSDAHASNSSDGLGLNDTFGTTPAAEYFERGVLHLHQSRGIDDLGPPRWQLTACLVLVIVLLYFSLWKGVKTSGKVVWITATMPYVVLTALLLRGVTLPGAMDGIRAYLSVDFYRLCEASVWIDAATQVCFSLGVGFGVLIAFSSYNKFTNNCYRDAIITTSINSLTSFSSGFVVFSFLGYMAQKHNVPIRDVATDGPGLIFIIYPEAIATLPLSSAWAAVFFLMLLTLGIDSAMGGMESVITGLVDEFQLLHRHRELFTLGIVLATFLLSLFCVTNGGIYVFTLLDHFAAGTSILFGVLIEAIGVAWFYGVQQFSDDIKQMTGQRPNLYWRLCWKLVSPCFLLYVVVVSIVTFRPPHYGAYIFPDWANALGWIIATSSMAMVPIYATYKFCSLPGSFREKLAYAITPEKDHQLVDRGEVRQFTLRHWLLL

Chain of Norepinephrine transporter (Q9WTR4 whole entry): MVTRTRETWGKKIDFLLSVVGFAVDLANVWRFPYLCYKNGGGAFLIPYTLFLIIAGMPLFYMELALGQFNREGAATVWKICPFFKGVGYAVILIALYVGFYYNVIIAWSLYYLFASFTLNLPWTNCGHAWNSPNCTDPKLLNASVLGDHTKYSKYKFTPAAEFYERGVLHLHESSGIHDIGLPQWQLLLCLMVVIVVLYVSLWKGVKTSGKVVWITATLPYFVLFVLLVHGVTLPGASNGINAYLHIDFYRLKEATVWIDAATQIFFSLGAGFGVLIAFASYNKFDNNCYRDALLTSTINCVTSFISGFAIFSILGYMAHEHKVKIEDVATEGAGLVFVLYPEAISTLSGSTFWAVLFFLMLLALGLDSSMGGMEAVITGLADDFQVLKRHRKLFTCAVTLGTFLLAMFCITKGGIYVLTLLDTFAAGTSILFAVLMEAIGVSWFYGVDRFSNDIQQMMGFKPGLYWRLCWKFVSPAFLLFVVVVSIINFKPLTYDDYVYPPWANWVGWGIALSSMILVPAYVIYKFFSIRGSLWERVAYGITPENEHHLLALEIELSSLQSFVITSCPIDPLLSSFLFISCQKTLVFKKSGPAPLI
Chain of Monoamine transporters; serotonin & dopamine (Rattus norvegicus) (P23977 whole entry, looked up): as the sequence (P23977 whole entry) above
Chain of Monoamine transporters; serotonin & dopamine (Rattus norvegicus) (P31652 whole entry, looked up): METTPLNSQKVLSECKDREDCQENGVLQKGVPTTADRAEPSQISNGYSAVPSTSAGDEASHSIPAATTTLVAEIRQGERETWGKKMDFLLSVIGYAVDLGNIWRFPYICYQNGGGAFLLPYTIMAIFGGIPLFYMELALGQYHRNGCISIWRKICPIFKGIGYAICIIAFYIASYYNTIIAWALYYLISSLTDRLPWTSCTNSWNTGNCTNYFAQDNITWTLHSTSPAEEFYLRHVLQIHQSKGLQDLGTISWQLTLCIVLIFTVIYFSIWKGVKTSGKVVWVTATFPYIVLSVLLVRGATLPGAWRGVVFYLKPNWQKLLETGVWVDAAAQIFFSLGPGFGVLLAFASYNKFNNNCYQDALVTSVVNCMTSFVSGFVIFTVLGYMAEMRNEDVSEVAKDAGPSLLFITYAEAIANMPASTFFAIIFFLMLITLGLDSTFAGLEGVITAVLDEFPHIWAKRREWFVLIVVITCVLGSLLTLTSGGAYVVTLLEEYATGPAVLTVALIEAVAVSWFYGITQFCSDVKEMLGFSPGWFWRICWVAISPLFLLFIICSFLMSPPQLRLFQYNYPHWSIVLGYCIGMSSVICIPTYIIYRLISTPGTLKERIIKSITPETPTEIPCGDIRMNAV
Chain of Sodium-dependent dopamine transporter (Rattus norvegicus) (P23977 whole entry, looked up): as the sequence (P23977 whole entry) above
Chain of Sodium-dependent serotonin transporter (P31652 whole entry): as the sequence (P31652 whole entry, looked up) above

Turning to `Fc1cccc(CN2CCC(CCOC(c3ccccc3)c3ccccc3)CC2)c1`, the Ratio in assay [1] was found to be 49.
`Fc1ccc(CN2CCC(CCOC(c3ccccc3)c3ccccc3)CC2)cc1F`: the Ratio in assay [1] turned out to be 122. In assay [2], the IC50 was 921 nM.
As for `CC(NCCC1CCN(Cc2ccc(F)cc2)CC1)c1ccccc1` (centres undefined), in assay [1], the Ratio turned out to be 3.2.
Consider `Fc1ccc(C(NCC2CCN(CCc3ccccc3)CC2)c2ccc(F)cc2)cc1`, for which the Ratio in assay [1] turned out to be 17.
On to `CS(=O)(=O)Nc1ccc(CN2CCC(CCOC(c3ccccc3)c3ccccc3)CC2)cc1`, for which the Ratio in assay [1] turned out to be 22; in assay [3], 0.36. In the assay filed under Rattus norvegicus, this compound gave an IC50 of 9.73 nM.
On to `Fc1ccc(CN2CCC(CCOC(c3ccccc3)c3ccccc3)CC2)cc1`, for which the Ratio in assay [1] is 113. Moreover, the IC50 in the assay filed under Rattus norvegicus was 2.48 nM.
Consider `Fc1ccc(CN2CCC(CCNC(c3ccccc3)c3ccccc3)CC2)cc1F`, for which the 50% inhibitory concentration (IC50) in the assay filed under Rattus norvegicus was 10.7 nM; in assay [2] it was 1030 nM.
In assay [4], `O=C(Cc1ccccc1)N1CCC(CCOC(c2ccccc2)c2ccccc2)CC1` gave an IC50 of 13200 nM. Besides, in assay [1], the Ratio worked out at 6.1.
In the case of `CN(CC1CCN(Cc2ccc(F)cc2)CC1)CC(c1ccccc1)c1ccccc1`, the Ratio in assay [1] came to 27.
As to `CC(OCCC1CCN(Cc2ccc(F)cc2)CC1)c1ccccc1` (centres undefined), the IC50 in assay [5] amounted to 751 nM; in assay [4] it was 5860 nM. In addition, the Ratio in assay [1] was 7.8.
As to `CN(CCC1CCN(Cc2ccc(F)cc2)CC1)C(c1ccccc1)c1ccccc1`, the figures for the IC50 in assay [5] and in assay [4] were 213 nM and 1660 nM, respectively. Besides, the Ratio in assay [1] was determined as 7.8.
Turning to `Fc1ccc(CN2CCC(CCNC(c3ccccc3)c3ccccc3)CC2)cc1`, the Ratio in assay [1] was determined as 62; in assay [3] it was 1.33. Also, the IC50 came to 12 nM in the assay filed under Rattus norvegicus and 945 nM in assay [2].
For the compound `Fc1ccc(CN2CCC(CNCC(c3ccccc3)c3ccccc3)CC2)cc1`, the Ratio in assay [1] turned out to be 7; in assay [3], 2.5. In addition, the values for the 50% inhibitory concentration (IC50) (in the assay filed under Rattus norvegicus; in assay [2]) were 49.6 nM and 1100 nM, respectively.
Regarding `c1ccc(CN2CCC(CCNC(c3ccccc3)c3ccccc3)CC2)cc1`, the IC50 in the assay listed under Rattus norvegicus amounted to 20.6 nM; in assay [2], 2620 nM.
Turning to `FC(F)(F)c1ccc(CN2CCC(CCOC(c3ccccc3)c3ccccc3)CC2)cc1`, the Ratio in assay [1] amounted to 71.
On to `Fc1ccc(CN2CCC(CNOC(c3ccccc3)c3ccccc3)CC2)cc1`, for which the Ratio in assay [1] came to 19; in assay [3], 0.48. The figures for the IC50 (in the assay filed under Rattus norvegicus; in assay [2]) were 16.6 nM and 691 nM, respectively.
As for `N#Cc1ccc(CN2CCC(CCOC(c3ccccc3)c3ccccc3)CC2)cc1`, the Ratio in assay [1] worked out at 615. For the same compound, the half-inhibitory concentration (IC50) worked out at 4.58 nM in the assay listed under Rattus norvegicus and 342 nM in assay [2].

What is called IC50 is the concentration at which inhibition is half-maximal. A high value points to lower potency.
